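Compound exposure: 48 hours, 5 concentrations, 96-well plates. TGI is the concentration that stops growth completely.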 A value given as a limit tells only on which side of the number the result lay.

Test systems include DU-145 prostate; NCI/ADR-RES ovarian; OVCAR-5 ovarian; HS 578T breast; 786-0 renal; ACHN renal; M14 melanoma; MDA-MB-435; BT-549 breast; A498 renal; SNB-75 CNS; HCT-15 colon; RXF 393 renal; SF-268 CNS; CAKI-1 renal; HOP-92 NSCLC; PC-3 prostate; TK-10 renal; NCI-H226 lung; SR leukemia.
Test in all cases: NCI tumour cell line growth inhibition, 48 h

In the case of `N#CC12C(=O)N3C(=NC(c4ccccc4)NC3c3ccccc3)C1(C#N)C(c1ccccc1)NC1=C2CCC1` (configuration not stated), the TGI in the assay on DU-145 prostate, in the assay with NCI/ADR-RES ovarian, in the assay on OVCAR-5 ovarian, in the assay with HS 578T breast, in the assay with 786-0 renal and in the assay on ACHN renal was over 100 µM in each case. Also, the TGI in the assay on M14 melanoma, with MDA-MB-435, with BT-549 breast, with A498 renal, in the assay on SNB-75 CNS and in the assay on HCT-15 colon was over 100 µM throughout. For the same compound, the TGI in the assay on RXF 393 renal, in the assay with SF-268 CNS, in the assay on CAKI-1 renal, in the assay with HOP-92 NSCLC, with PC-3 prostate and in the assay with TK-10 renal was over 100 µM in each case. The compound also had a TGI in the assay on NCI-H226 lung of over 100 µM.
Turning to `O=C(/C=C/c1ccccc1)CCN1CCN(CCC(=O)/C=C/c2ccccc2)CC1`, the TGI in the assay with DU-145 prostate was 31.5 µM; in the assay with NCI/ADR-RES ovarian, 60.7 µM; with OVCAR-5 ovarian it was 30.5 µM; with HS 578T breast, 37.2 µM; with 786-0 renal, 18.9 µM; in the assay on ACHN renal it was 29.5 µM. The TGI in the assay with M14 melanoma was determined as 23.9 µM; in the assay on MDA-MB-435 it was 14.8 µM; in the assay on BT-549 breast it was 28.4 µM; in the assay with A498 renal, 33.3 µM; in the assay with SNB-75 CNS, 29.7 µM; with HCT-15 colon, 23 µM. For the same compound, the TGI in the assay on RXF 393 renal was found to be 28.8 µM; in the assay on SF-268 CNS, 29.2 µM; with CAKI-1 renal, 31.9 µM; in the assay on HOP-92 NSCLC it was 35.9 µM; in the assay on PC-3 prostate it was 34 µM; in the assay with TK-10 renal, 30 µM. In the assay on NCI-H226 lung, this compound had a TGI of 64.4 µM.
Consider `COC(=O)C(CC12CC3CC(CC(C3)C1)C2)NC(=O)C(N)CC(=O)O` (configuration not stated), for which the TGI in the assay with DU-145 prostate, in the assay on NCI/ADR-RES ovarian, in the assay with OVCAR-5 ovarian, in the assay with HS 578T breast, in the assay with 786-0 renal and in the assay on ACHN renal was over 100 µM in each case. The TGI in the assay on MDA-MB-435, in the assay on BT-549 breast, in the assay with SNB-75 CNS, in the assay with HCT-15 colon, in the assay on RXF 393 renal and in the assay on SF-268 CNS was over 100 µM in each case. Moreover, the TGI in the assay with CAKI-1 renal, in the assay on HOP-92 NSCLC, with SR leukemia, in the assay on PC-3 prostate and with TK-10 renal was over 100 µM in each case.
Turning to `NC(=O)NNc1nc2ccccc2c(=O)n1NC(=O)C(=O)Nc1ccc(Cl)cc1Cl`, the TGI in the assay with NCI/ADR-RES ovarian, with OVCAR-5 ovarian, in the assay with HS 578T breast, in the assay with 786-0 renal, with ACHN renal and in the assay on M14 melanoma was over 100 µM each time. For the same compound, the TGI with MDA-MB-435, with BT-549 breast, in the assay with A498 renal, in the assay with SNB-75 CNS, in the assay with HCT-15 colon and in the assay with RXF 393 renal was over 100 µM throughout. Besides, the TGI in the assay with SF-268 CNS, in the assay with CAKI-1 renal, with HOP-92 NSCLC, with SR leukemia, with PC-3 prostate and with TK-10 renal was over 100 µM throughout. In the assay with NCI-H226 lung, this compound gave a TGI of over 100 µM.
For `CCNCCNc1c2ccccc2nc2ccccc12`, the TGI stood at 7.42 µM in the assay with DU-145 prostate; 19.5 µM with NCI/ADR-RES ovarian; 7.62 µM with OVCAR-5 ovarian; 5.28 µM in the assay on HS 578T breast; 13.4 µM in the assay on 786-0 renal; 1.37 µM with ACHN renal. Moreover, the TGI in the assay with M14 melanoma was 3.05 µM; in the assay on MDA-MB-435, 2.59 µM; with BT-549 breast it was 10.2 µM; with SNB-75 CNS, 3.52 µM; in the assay with HCT-15 colon it was 5.83 µM; in the assay on RXF 393 renal, 3.31 µM. In addition, the TGI was 5.52 µM in the assay with SF-268 CNS; 3.48 µM in the assay with CAKI-1 renal; 4.18 µM in the assay on SR leukemia; 3.95 µM with PC-3 prostate; 23.3 µM with TK-10 renal.
As to `CC(NNC(=O)c1ccncc1)c1ccc(F)cc1` (configuration not stated), the TGI with DU-145 prostate, in the assay on NCI/ADR-RES ovarian, with OVCAR-5 ovarian, in the assay on HS 578T breast, in the assay on 786-0 renal and in the assay on ACHN renal was over 100 µM in each case. For the same compound, the TGI in the assay with M14 melanoma, with MDA-MB-435, in the assay with BT-549 breast, in the assay on A498 renal, in the assay with SNB-75 CNS and with HCT-15 colon was over 100 µM throughout. Also, the TGI in the assay on RXF 393 renal, with SF-268 CNS, with CAKI-1 renal, with HOP-92 NSCLC, in the assay on PC-3 prostate and in the assay on TK-10 renal was over 100 µM throughout. The compound also came in with a TGI in the assay with NCI-H226 lung of over 100 µM.
Consider `CCCCCCCCCCCC(=O)Oc1c(Cl)cc(Cl)c(OC(=O)C(=O)Oc2c(Cl)cc(Cl)c(OC(=O)CCCCCCCCCCC)c2Cl)c1Cl`, for which the TGI in the assay on DU-145 prostate, in the assay on NCI/ADR-RES ovarian, in the assay on OVCAR-5 ovarian, in the assay with HS 578T breast, with 786-0 renal and in the assay with ACHN renal was over 100 µM in each case. In addition, the TGI in the assay with MDA-MB-435, in the assay on BT-549 breast, in the assay on SNB-75 CNS, with RXF 393 renal, in the assay on SF-268 CNS and in the assay on CAKI-1 renal was over 100 µM each time. For the same compound, the TGI with HOP-92 NSCLC, with SR leukemia, in the assay on PC-3 prostate and in the assay with TK-10 renal was over 100 µM each time.
As to `CC(=O)OCOC(=O)CN(CC(=O)OCOC(C)=O)Cc1cc2c(cc1OC(C)=O)Oc1cc(OC(C)=O)c(CN(CC(=O)OCOC(C)=O)CC(=O)OCOC(C)=O)cc1C21OC(=O)c2ccccc21`, the TGI came to 6.35 µM in the assay on DU-145 prostate; 75 µM with NCI/ADR-RES ovarian; 11.1 µM in the assay on OVCAR-5 ovarian; 1.59 µM with HS 578T breast; 1.41 µM with 786-0 renal; 4.02 µM in the assay with ACHN renal. The TGI in the assay on M14 melanoma was 3.68 µM; with MDA-MB-435 it was 2.02 µM; with BT-549 breast, 1.16 µM; with A498 renal, 2.61 µM; in the assay with SNB-75 CNS, 9.39 µM; in the assay with HCT-15 colon, 7.05 µM. In addition, the TGI turned out to be 1.43 µM in the assay on RXF 393 renal; 4.22 µM in the assay with SF-268 CNS; 6.77 µM in the assay with CAKI-1 renal; 3.06 µM with HOP-92 NSCLC; 4.82 µM in the assay on PC-3 prostate; 3 µM in the assay on TK-10 renal. Also, the TGI in the assay with NCI-H226 lung was 2.86 µM.
For the compound `[N-]=[N+]=Nc1c(C=O)c(=O)n2c3c(cccc13)CCC2`, the TGI was 21 µM with DU-145 prostate; over 45.6 µM in the assay on NCI/ADR-RES ovarian; 21 µM with OVCAR-5 ovarian; 57.3 µM in the assay on HS 578T breast; 8.83 µM in the assay with 786-0 renal; 11.5 µM with ACHN renal. Moreover, the TGI with M14 melanoma was determined as 3.9 µM; with MDA-MB-435, 20.1 µM; with BT-549 breast it was 6.07 µM; in the assay with A498 renal, 28.8 µM; in the assay on SNB-75 CNS, 29.1 µM; in the assay with HCT-15 colon, 11.5 µM. Moreover, the TGI was determined as 3.76 µM in the assay with RXF 393 renal; 35.4 µM with SF-268 CNS; 16.2 µM in the assay with CAKI-1 renal; 4.5 µM in the assay with HOP-92 NSCLC; 27.2 µM in the assay on PC-3 prostate; 10.1 µM in the assay on TK-10 renal. Moreover, the TGI with NCI-H226 lung turned out to be 43.7 µM.
Regarding `O=[N+]([O-])C(C(Cl)=C(Cl)Cl)=C(N(Cc1ccccc1)Cc1ccccc1)N(Cc1ccccc1)Cc1ccccc1`, the TGI in the assay on DU-145 prostate, in the assay on NCI/ADR-RES ovarian, with OVCAR-5 ovarian, in the assay on HS 578T breast, with 786-0 renal and in the assay with ACHN renal was over 100 µM throughout. Moreover, the TGI in the assay on M14 melanoma was over 100 µM; with MDA-MB-435, 79.8 µM; in the assay on BT-549 breast it was over 100 µM; with A498 renal, 86.6 µM; with SNB-75 CNS, over 100 µM; in the assay on HCT-15 colon it was over 100 µM. The TGI is over 100 µM with RXF 393 renal; over 100 µM in the assay with SF-268 CNS; over 100 µM in the assay with CAKI-1 renal; 57.1 µM in the assay on HOP-92 NSCLC; over 100 µM in the assay with PC-3 prostate; over 100 µM in the assay on TK-10 renal. Further, in the assay on NCI-H226 lung, the TGI was over 100 µM.
As to `C[n+]1c2ccccc2c(C(=O)Nc2ccc(S(=O)(=O)Nc3ccnn3-c3ccccc3)cc2)c2ccccc21`, the TGI in the assay on DU-145 prostate, with NCI/ADR-RES ovarian, with OVCAR-5 ovarian, with HS 578T breast, in the assay with 786-0 renal and in the assay on ACHN renal was over 100 µM throughout. The TGI with M14 melanoma, in the assay on MDA-MB-435, with BT-549 breast, in the assay on SNB-75 CNS, with HCT-15 colon and in the assay on SF-268 CNS was over 100 µM in each case. Besides, the TGI in the assay with CAKI-1 renal, with SR leukemia, in the assay with PC-3 prostate, with TK-10 renal and in the assay on NCI-H226 lung was over 100 µM throughout.
For the compound `CCOC(=O)N/N=C(/OCC)c1ccccc1`, the TGI in the assay on DU-145 prostate, in the assay on NCI/ADR-RES ovarian, in the assay on OVCAR-5 ovarian, with HS 578T breast, in the assay on 786-0 renal and in the assay with ACHN renal was over 100 µM in each case. Further, the TGI in the assay with MDA-MB-435, with BT-549 breast, in the assay with A498 renal, in the assay with HCT-15 colon, in the assay on RXF 393 renal and in the assay with SF-268 CNS was over 100 µM in each case. Besides, the TGI in the assay on CAKI-1 renal, in the assay on HOP-92 NSCLC, with SR leukemia, in the assay with TK-10 renal and in the assay on NCI-H226 lung was over 100 µM in each case.

The record behind these values is PubChem BioAssay (NCI).
